One assay has as its system HUVECs. Put plainly: HUVEC morphology and attachment on tazarotene-loaded thin films. Type of assay: cell-based, human. Here is the method: The effects of tazarotene released from bulk fibrin gels on individual cellular morphology was determined through the low-density culture of HUVECs on thin films of loaded fibrin gels. Fibrin gels with varying concentrations of bulk tazarotene incorporated were allowed to polymerize between two clean glass coverslips for 1 hour, in order to form thin films. Thin films of 80 μL were made using 2 mg/ml human fibrinogen (Enzyme Research Laboratories), HEPES buffer (25 mM), and 0.5 U/ml human thrombin. Upon removal of one glass coverslip, the remaining glass and attached gel were placed within the well of a 12-well plate and rinsed with PBS. HUVECs (15,000 cells/well) were cultured for 16 hours, at which point they were fixed and stained. Images of cells were captured at 10× using an EVOS FL Auto Imaging System, with at least 5 images taken per thin film. In order to validate the nanoparticle release of tazarotene from FBNs, 80 μL FBN gel (330 M particles/mL) thin films were formed with different relative ratios of tazarotene-loaded to unloaded FBNs. All other elements of the procedure were the same.

For another assay, the system named is HUVECs and HLFs. Put plainly: Microfluidic vasculogenesis assay with free tazarotene. Type of assay: cell-based, human. Here is the method: The effects of tazarotene dosage on vascular network formation were investigated through the use of an established microfluidic vasculogenesis model (FIG. 12A). HUVECs and HLFs were embedded in 2 mg/mL human fibrin gels made 25 mM HEPES buffer and 0.5 U/mL thrombin. Media channels in the microdevice (FIG. 12A) were filled with HUVEC media supplemented with free tazarotene. Daily media changes and brightfield imaging were completed until cells were fixed with 4% paraformaldehyde at 1 week after seeding. Cells were permeabilized with 0.3% Triton X-100 (Sigma), immunostained with PEKAM-1 antibody (ThermoFisher), and stained with phalloidin (Invitrogen) and DAPI (Invitrogen) in order to visualize networks of both HUVECs and HLFs. Imaging was performed using a confocal microscope with a 10× objective. At least 3 devices were imaged for each experimental group and 3 images were taken per device. ImageJ was used to quantify vascular network characteristics (average segment length, average segment width, average number of branch points, and total endothelial area).

The mark [1] stands for this setting: fibrin gel thin films bulk loaded with tazarotene, 16 hours.

Read-outs that look alike come from different tables or passages of the source.

Regarding `CCOC(=O)c1ccc(C#Cc2ccc3c(c2)C(C)(C)CCS3)nc1` [tazarotene], the “concentration with the most cell spreading” value in the assay on HUVECs (setting [1]) was 200 nM. In the assay with HUVECs (setting [1]), the “effect on cellular attachment” value is “no significant effect”. Moreover, in the assay with HUVECs (with increasing concentrations), the cell circularity result is “less circularity”. In addition, the cell perimeter entry in the assay on HUVECs (with increasing concentrations) is listed as “greater perimeter”. The “average network segment width” value is 36±11 μm in the assay with HUVECs and HLFs; 23±4 μm in the assay on HUVECs and HLFs (2 μM free tazarotene, 1 week); 31±7 μm with HUVECs and HLFs (200 μM free tazarotene, 1 week). Moreover, the average segment length in the assay with HUVECs and HLFs (20 nM free tazarotene, 1 week) is given as 218±54 μm; in the assay with HUVECs and HLFs (2 μM free tazarotene, 1 week), 226±40 μm. Moreover, the endothelial network area is 130167±61886 μm^2 in the assay with HUVECs and HLFs (2 μM free tazarotene, 1 week); 206,763±51,803 μm^2 in the assay with HUVECs and HLFs (20 μM free tazarotene, 1 week); 240,770±44,210 μm^2 in the assay with HUVECs and HLFs (200 μM free tazarotene, 1 week); 230,087±51,803 μm^2 with HUVECs and HLFs (2000 μM free tazarotene, 1 week). Also, in the assay with HUVECs and HLFs (across tazarotene concentrations), the branch points entry is “No significant differences”.

The values are drawn from patent US20250205316A1, “COLLOIDAL FIBRIN NANOPARTICLE COMPOSITIONS AND USES” (NORTH CAROLINA STATE UNIVERSITY, priority 2023, published 2025).
